# From patent US8658661B2, “Oxadiazole inhibitors of leukotriene production” (Boehringer Ingelheim International GmbH, priority 2010, dated 2014)
# Read-outs that look alike come from different tables or passages of the source.
# Tests used:
# [1] = tested on: synthesis of LTB4 in human whole blood; assay: Human whole blood assay (inhibition of LTB4 synthesis, calcimycin stimulated); assay type: cell-based; details: heparinized human whole blood, calcimycin 20 μM, plasma LTB4
# Procedure, shortened: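 LTB4 levels in plasma were measured by antibody-based HTRF after heparinized human whole blood, pretreated with compound (15 min, 37° C), was challenged with 20 μM calcimycin for 30 min at 37° C.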
# [2] = target: T1, recombinant human FLAP protein (Homo sapiens, UniProt P20292); assay: FLAP binding assay (SPA, displacement of [125I]L-691,831)
# T1 construct: made in house; host or cells: Sf9 insect cells (100,000×g membrane pellet used)
# T1 sequence (P20292 1-161): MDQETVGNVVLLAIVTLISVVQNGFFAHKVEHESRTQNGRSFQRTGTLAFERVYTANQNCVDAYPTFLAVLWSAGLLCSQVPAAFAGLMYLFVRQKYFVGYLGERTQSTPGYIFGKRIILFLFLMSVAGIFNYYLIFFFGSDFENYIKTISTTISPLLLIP
# Procedure, shortened: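 Membranes from sf9 cells expressing human FLAP in pH 7.5 Tris buffer (MgCl2, EDTA, PMSF). Non-specific binding defined with 10 μM cold L-691,831.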
# [3] = membranes of sf9 cells expressing recombinant human FLAP, [125I]L-691,831 probe, read-out: FLAP binding IC50
Structure (SMILES),IC50 [1] [nM],"IC50 [2, 3] [nM]",IC50 [2] [nM]
"CC(C)(O)Cn1cc(-c2nc([C@@](C)(c3ccc(-c4cnc(N)nc4)cc3)C3CC3)no2)cn1 [Example 174, 1-[4-(3-{(R)-1-[4-(2-Amino-pyrimidin-5-yl)-phenyl]-1-cyclopropyl-ethyl}-[1,2,4]oxadiazol-5-yl)-pyrazol-1-yl]-2-methyl-propan-2-ol]",19,1.2,–
"CC(C)C(C)(c1ccc(-c2cnc(N)nc2)cc1)c1noc(-c2c[nH]cn2)n1 (stereo not shown) [Example 126, 5-(4-{2-[5-(1H-imidazol-4-yl)-1,2,4-oxadiazol-3-yl]-3-methylbutan-2-yl}phenyl)pyrimidin-2-amine]",260,4.6,–
"CC(C)[C@](C)(c1ccc(-c2cnc(N)nc2)cc1)c1noc(-c2ccn[nH]2)n1 [Example 23, 5-(4-{(2R)-3-methyl-2-[5-(1H-pyrazol-5-yl)-1,2,4-oxadiazol-3-yl]butan-2-yl}phenyl)pyrimidin-2-amine]",170,6.9,–
"CC(C)C(C)(c1ccc(-c2cnc(N)nc2)cc1)c1noc(-c2ccc(N3CCOCC3)nc2)n1 (stereo not shown) [Example 135, 5-[4-(3-methyl-2-{5-[6-(morpholin-4-yl)pyridin-3-yl]-1,2,4-oxadiazol-3-yl}butan-2-yl)phenyl]pyrimidin-2-amine]",250,1.4,–
"CC(C)C(C)(c1ccc(-c2cnc(N)nc2)cc1)c1noc(-c2cccc(S(C)(=O)=O)c2)n1 (stereo not shown) [Example 148, 5-[4-(3-methyl-2-{5-[3-(methylsulfonyl)phenyl]-1,2,4-oxadiazol-3-yl}butan-2-yl)phenyl]pyrimidin-2-amine]",610,14,–
CN(C)C(=O)Cn1cc(-c2nc(C(C)(c3ccc(-c4ccc(N)nc4C#N)cc3)C3CC3)no2)cn1 (stereo not shown) [Example 296],230,12,–
"Cn1cc(-c2nc([C@](C)(c3ccc(-c4cnc(N)nc4)cc3)C3CC3)no2)cn1 [Example 62, 5-(4-{(1S)-1-cyclopropyl-1-[5-(1-methyl-1H-pyrazol-4-yl)-1,2,4-oxadiazol-3-yl]ethyl}phenyl)pyrimidin-2-amine]",350,18,–
"Cn1cc(-c2nc(C(C)(c3ccc(-c4cnc5c(c4)CCN5)cc3)C3CC3)no2)cn1 (stereo not shown) [Example 256, 5-(4-{1-Cyclopropyl-1-[5-(1-methyl-1H-pyrazol-4-yl)-[1,2,4]oxadiazol-3-yl]-ethyl}-phenyl)-2,3-dihydro-1H-pyrrolo[2,3-b]pyridine]",51,4.5,–
"CC(C)(CO)Nc1cnc(-c2nc([C@@](C)(c3ccc(-c4cnc(N)nc4)cc3)C3CC3)no2)cn1 (single isomer, unassigned) [Example 56]",79,2.4,–
"CC(C)(CO)Nc1cnc(-c2nc(C(C)(C)c3ccc(-c4cnc(N)nc4)cc3)no2)cn1 [Example 74, 2-{[5-(3-{2-[4-(2-aminopyrimidin-5-yl)phenyl]propan-2-yl}-1,2,4-oxadiazol-5-yl)pyrazin-2-yl]amino}-2-methylpropan-1-ol]",640,17,–
"CC(C)C(C)(c1ccc(-c2cnc(N)nc2)cc1)c1noc(-c2ccnn2C)n1 (stereo not shown) [Example 18, 5-(4-{3-methyl-2-[5-(1-methyl-1H-pyrazol-5-yl)-1,2,4-oxadiazol-3-yl]butan-2-yl}phenyl)pyrimidin-2-amine]",320,3.3,–
"CC(c1ccc(-c2cnc(N)nc2)cc1)(c1noc(-c2cn[nH]c2)n1)C1CCC1 (stereo not shown) [Example 34, 5-(4-{1-cyclobutyl-1-[5-(1H-pyrazol-4-yl)-1,2,4-oxadiazol-3-yl]ethyl}phenyl)pyrimidin-2-amine]",160,3.7,–
"CN(C)C(=O)Cn1cc(-c2nc(C(C)(c3ccc(-c4cnc5c(c4)OCCN5)cc3)C3CC3)no2)cn1 (stereo not shown) [Example 239, 2-[4-(3-{1-Cyclopropyl-1-[4-(3,4-dihydro-2H-pyrido[3,2-b][1,4]oxazin-7-yl)-phenyl]-ethyl}-[1,2,4]oxadiazol-5-yl)-pyrazol-1-yl]-N,N-dimethyl-acetamide]",290,4.1,–
"CC(C)C(C)(c1ccc(-c2cnc(N)nc2)cc1)c1noc(-c2cnn(CCN3CCOCC3)c2)n1 (stereo not shown) [Example 144, 5-{4-[3-methyl-2-(5-{1-[2-(morpholin-4-yl)ethyl]-1H-pyrazol-4-yl}-1,2,4-oxadiazol-3-yl)butan-2-yl]phenyl}pyrimidin-2-amine]",26,3.1,–
"CC(C)C(C)(c1ccc(-c2cnc(N)nc2)cc1)c1noc(C2CCN(C(=O)OC(C)(C)C)CC2)n1 (stereo not shown) [Example 109, 4-(3-{1-[4-(2-Amino-pyrimidin-5-yl)-phenyl]-1,2-dimethyl-propyl}-1,2,4-oxadiazol-5-yl)-piperidine-1-carboxylic acid tert-butyl ester]",1500,46,–
"CC(C)C(C)(c1ccc(-c2cnc(N)c(CO)c2)cc1)c1noc(-c2cccnc2)n1 (stereo not shown) [Example 6, [2-amino-5-(4-{3-methyl-2-[5-(pyridin-3-yl)-1,2,4-oxadiazol-3-yl]butan-2-yl}phenyl)pyridin-3-yl]methanol]",70,1.1,–
"CC(C)C(C)(c1ccc(-c2cnc(N)nc2)cc1)c1noc(NCCS(C)(=O)=O)n1 (stereo not shown) [Example 87, 5-{4-[3-methyl-2-(5-{[2-(methylsulfonyl)ethyl]amino}-1,2,4-oxadiazol-3-yl)butan-2-yl]phenyl}pyrimidin-2-amine]",970,41,–
"CC(C)[C@](C)(c1ccc(-c2cnc(N)nc2)cc1)c1noc(-c2ccnn2C)n1 [Example 31, 5-(4-{(2R)-3-methyl-2-[5-(1-methyl-1H-pyrazol-5-yl)-1,2,4-oxadiazol-3-yl]butan-2-yl}phenyl)pyrimidin-2-amine]",200,1.6,–
"CC(C)C(C)(c1ccc(-c2cnc(N)nc2)cc1)c1noc(N2CC(O)C2)n1 (stereo not shown) [Example 200, 1-(3-{1-[4-(2-Amino-pyrimidin-5-yl)-phenyl]-1,2-dimethyl-propyl}-[1,2,4]oxadiazol-5-yl)-azetidin-3-ol]",250,15,–
"CC(O)CNc1ccc(-c2nc(C(C)(c3ccc(-c4cnc(N)nc4)cc3)C3CC3)no2)cn1 (stereo not shown) [Example 40, 1-{[5-(3-{1-[4-(2-aminopyrimidin-5-yl)phenyl]-1-cyclopropylethyl}-1,2,4-oxadiazol-5-yl)pyridin-2-yl]amino}propan-2-ol]",100,2.3,–
"CC(C)C(C)(c1ccc(-c2cnc(N)nc2)cc1)c1noc(-c2ncc[nH]2)n1 (stereo not shown) [Example 20, 5-(4-{2-[5-(1H-imidazol-2-yl)-1,2,4-oxadiazol-3-yl]-3-methylbutan-2-yl}phenyl)pyrimidin-2-amine]",3200,10,–
"CN(C)C(=O)Cn1cc(-c2nc([C@@](C)(c3ccc(-c4cnc(N)c(C(F)(F)F)c4)cc3)C3CC3)no2)cn1 [Example 281, 2-[4-(3-{(R)-1-[4-(6-Amino-5-trifluoromethyl-pyridin-3-yl)-phenyl]-1-cyclopropyl-ethyl}-[1,2,4]oxadiazol-5-yl)-pyrazol-1-yl]-N,N-dimethyl-acetamide]",160,5,–
"COCCNc1cnc(-c2nc(C(C)(c3ccc(-c4cnc(N)nc4)cc3)C(C)C)no2)cn1 (stereo not shown) [Example 162, 5-{4-[2-(5-{5-[(2-methoxyethyl)amino]pyrazin-2-yl}-1,2,4-oxadiazol-3-yl)-3-methylbutan-2-yl]phenyl}pyrimidin-2-amine]",41,2.3,–
"CC(C)[C@@](C)(c1ccc(-c2cnc(N)nc2)cc1)c1noc(-c2cnn(C)c2)n1 (single isomer, unassigned) [Example 47]",360,–,7.7
"CNC(=O)Cn1cc(-c2nc([C@](C)(c3ccc(-c4cnc(N)nc4)cc3)C3CC3)no2)cn1 [Example 231, 2-[4-(3-{(S)-1-[4-(2-Amino-pyrimidin-5-yl)-phenyl]-1-cyclopropyl-ethyl}-[1,2,4]oxadiazol-5-yl)-pyrazol-1-yl]-N-methyl-acetamide]",700,120,–
"CC(C)C(C)(c1ccc(-c2cnc(N)nc2)cc1)c1noc(N2CCN(CC(=O)N(C)C)CC2)n1 (stereo not shown) [Example 193, 2-[4-(3-{1-[4-(2-Amino-pyrimidin-5-yl)-phenyl]-1,2-dimethyl-propyl}-[1,2,4]oxadiazol-5-yl)-piperazin-1-yl]-N,N-dimethyl-acetamide]",230,18,–
"CN(C)C(=O)Cn1cc(-c2nc(C(C)(c3ccc(-c4cnc(N)c(C(F)(F)F)c4)cc3)C3CC3)no2)cn1 (stereo not shown) [Example 246, 2-[4-(3-{1-[4-(6-Amino-5-trifluoromethyl-pyridin-3-yl)-phenyl]-1-cyclopropyl-ethyl}-[1,2,4]oxadiazol-5-yl)-pyrazol-1-yl]-N,N-dimethyl-acetamide]",430,19,–
"Cc1nc(N)cnc1-c1ccc([C@](C)(c2noc(-c3cnn(CC(=O)N(C)C)c3)n2)C2CC2)cc1 [Example 285, 2-[4-(3-{(R)-1-[4-(5-Amino-3-methyl-pyrazin-2-yl)-phenyl]-1-cyclopropyl-ethyl}-[1,2,4]oxadiazol-5-yl)-pyrazol-1-yl]-N,N-dimethyl-acetamide]",190,7,–
"CC(C)C(C)(c1ccc(-c2cnc(N)nc2)cc1)c1noc(C2CCCNC2)n1 (stereo not shown) [Example 113, 5-(4-{3-methyl-2-[5-(piperidin-3-yl)-1,2,4-oxadiazol-3-yl]butan-2-yl}phenyl)pyrimidin-2-amine]",3100,66,–
